The values that follow come from PMC12521527, “In vivo self-assembled nano-PROTAC for the dual degradation of AR and HSP90 to overcome castration-resistant prostate cancer resistance” (Signal Transduction and Targeted Therapy, 2025).

Numbered stars: 1 amine (or outer) side, 2 acyl side, 3 side chain; on linkers, the order of the positions; unused ones are H or OH. Square brackets hold non-standard residues; d marks the D form. Peptide text beside a SMILES is read from it. * marks the point of attachment. X2 = CC1(C)C(=O)N(c2ccc(C#N)c(C(F)(F)F)c2)C(=S)N1c1ccc(C(=O)*)c(F)c1; X1 = O=C1CCC(N2C(=O)c3cccc(N(CC(=O)[*:2])[*:1])c3C2=O)C(=O)N1; EuK = O=C(O)CC[C@H](NC(=O)N[C@@H](CCCCN*)C(=O)O)C(=O)O; 2Nal = N[C@@H](Cc1ccc2ccccc2c1)C(=O)O

Data set [1] concerns the target CRBN, with prebound AR (AR: Psa-AR: CRBN) (Homo sapiens, UniProt P10275+Q96SW2). Description: MST binding of binary complex (Psa-AR: AR) to CRBN. To be noted: binary complex Psa-AR: AR titrated against RED-CRBN 400 nM, 20 min incubation, 22 °C, n = 3, read-out: Kd, affinity for CRBN in the presence of prebound AR. An excerpt: Fig. 3 Polynary nanocomposite (AR: Psa-AR: CRBN) formation. a Dose‒response curve for the binding interaction between Psa-AR and the AR protein; n = 3 per group. b Dose‒response curve for the binding interaction between Psa-AR and the CRBN protein; n = 3 per group. c Dose‒response curve for the binding interaction between the binary complex (Psa-AR: AR) and CRBN, n = 3 per group. d In vitro Psa-AR self-assembly, protein binding and degradation. e Representative 22Rv1 cell CLSM images of FITC-labeled Psa-AR assembly (green channel) interacting with HSP90 (red channel) and its colocalization analysis (1–1’). […] Scale bar: 10 μm.
MST (NanoTemper Technologies GmbH, Munich, Germany) was utilized to evaluate the binding affinity between Psa-AR and RED-NHS-labeled PSMA, AR, or CRBN proteins. The PSMA, AR, and CRBN proteins were labeled with the Protein Labeling Kit RED-NHS 2nd Generation (Amine Reactive). RED-PSMA, RED-AR, and RED-CRBN proteins were diluted to a final concentration of 400 nM with PBS-T buffer (0.05% Tween 20), where the fluorescence signals satisfied the typical detection limit of the Monolith NT.115 instrument (NanoTemper Technologies). The binding affinity between Psa-AR and the RED-NHS-labeled AR protein was assessed. […] Then, 10 µL of RED-CRBN was added to each sample to achieve a final concentration of 400 nM. […] The data were analyzed by NanoTemper analysis software.

Chain of CRBN, with prebound AR (AR: Psa-AR: CRBN) (Q96SW2 whole entry): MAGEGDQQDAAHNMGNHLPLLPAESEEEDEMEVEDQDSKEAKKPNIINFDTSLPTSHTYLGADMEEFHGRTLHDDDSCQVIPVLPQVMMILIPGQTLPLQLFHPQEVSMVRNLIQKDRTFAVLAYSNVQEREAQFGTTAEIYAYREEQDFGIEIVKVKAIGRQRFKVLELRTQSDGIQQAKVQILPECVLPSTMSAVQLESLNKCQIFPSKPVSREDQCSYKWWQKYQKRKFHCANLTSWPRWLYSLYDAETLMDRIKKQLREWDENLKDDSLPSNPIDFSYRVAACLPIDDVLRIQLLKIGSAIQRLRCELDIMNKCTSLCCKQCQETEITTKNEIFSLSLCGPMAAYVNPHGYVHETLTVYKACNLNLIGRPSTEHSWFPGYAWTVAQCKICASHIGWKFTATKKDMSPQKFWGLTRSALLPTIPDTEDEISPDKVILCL
Chain of CRBN, with prebound AR (AR: Psa-AR: CRBN) (P10275 whole entry): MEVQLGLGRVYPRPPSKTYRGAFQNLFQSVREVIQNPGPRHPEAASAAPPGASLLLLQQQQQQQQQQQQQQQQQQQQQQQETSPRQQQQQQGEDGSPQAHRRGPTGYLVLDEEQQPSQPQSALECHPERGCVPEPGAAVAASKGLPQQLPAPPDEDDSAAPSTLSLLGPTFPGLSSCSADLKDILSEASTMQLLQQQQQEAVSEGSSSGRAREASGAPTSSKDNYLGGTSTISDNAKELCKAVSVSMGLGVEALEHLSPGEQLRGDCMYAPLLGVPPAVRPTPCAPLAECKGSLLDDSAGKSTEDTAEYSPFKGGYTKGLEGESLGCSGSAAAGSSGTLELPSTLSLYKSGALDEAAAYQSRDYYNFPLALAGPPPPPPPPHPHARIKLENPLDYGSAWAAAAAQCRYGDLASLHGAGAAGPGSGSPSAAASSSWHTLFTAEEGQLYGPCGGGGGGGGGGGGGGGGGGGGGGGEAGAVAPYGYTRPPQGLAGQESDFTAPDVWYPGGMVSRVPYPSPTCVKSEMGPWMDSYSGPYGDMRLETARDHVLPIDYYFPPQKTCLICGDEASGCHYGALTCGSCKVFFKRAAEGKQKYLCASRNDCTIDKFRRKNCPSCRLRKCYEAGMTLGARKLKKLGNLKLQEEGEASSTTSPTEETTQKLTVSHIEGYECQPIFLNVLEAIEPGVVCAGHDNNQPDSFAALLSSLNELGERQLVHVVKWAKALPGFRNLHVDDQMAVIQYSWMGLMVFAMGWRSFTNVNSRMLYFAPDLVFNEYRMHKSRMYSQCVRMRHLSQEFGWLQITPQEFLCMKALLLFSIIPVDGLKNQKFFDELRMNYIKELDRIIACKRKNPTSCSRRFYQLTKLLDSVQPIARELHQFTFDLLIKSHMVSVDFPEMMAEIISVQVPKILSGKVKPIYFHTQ

The compound `CC1(C)C(=O)N(c2ccc(C#N)c(C(F)(F)F)c2)C(=S)N1c1ccc(C(=O)NCCCC[C@H](NC(=O)CNc2cccc3c2C(=O)N(C2CCC(=O)NC2=O)C3=O)C(=O)N[C@@H](CS)C(=O)N[C@@H](CCC(N)=O)C(=O)N[C@@H](Cc2ccc(O)cc2)C(=O)N[C@@H](CC(N)=O)C(=O)N[C@@H](CCC(N)=O)C(=O)N[C@@H](Cc2ccc(O)cc2)C(=O)N[C@@H](Cc2ccc(O)cc2)C(=O)N[C@@H](Cc2ccc3ccccc3c2)C(=O)NCCCC[C@H](NC(=O)N[C@@H](CCC(=O)O)C(=O)O)C(=O)O)c(F)c1` (some centres unmarked) [Psa-AR] (H-[X1]K(X2)CQYNQYY[2Nal]-EuK) yielded an FTIR amide I peak with PSMA of 1630 cm⁻¹. Further, the Kd (as a rule, the concentration at which binding is half-saturated) in data set [1] was determined as 1140 nM.
